Results on two compounds are retold here after publication PMC2528830 (British Journal of Pharmacology, 2008).

The term EC50 denotes the concentration that produces a half-maximal response. A higher EC50 goes with lower potency in that assay.

For assay [1], the target named is T1, GPR119 (Homo sapiens, UniProt Q8TDV5).
T1 sequence (Q8TDV5 1-335): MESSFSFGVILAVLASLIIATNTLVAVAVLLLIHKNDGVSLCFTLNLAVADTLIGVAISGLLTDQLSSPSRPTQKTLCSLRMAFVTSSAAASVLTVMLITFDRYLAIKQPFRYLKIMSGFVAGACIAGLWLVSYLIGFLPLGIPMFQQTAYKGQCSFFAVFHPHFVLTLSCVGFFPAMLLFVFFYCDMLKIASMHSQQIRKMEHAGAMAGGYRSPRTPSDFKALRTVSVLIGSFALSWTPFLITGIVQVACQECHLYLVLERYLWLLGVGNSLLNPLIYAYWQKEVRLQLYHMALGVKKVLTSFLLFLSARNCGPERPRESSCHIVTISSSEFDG
Kind of assay: cAMP accumulation in HEK293-GPR119 vs untransfected cells. The format is cell-based. For orientation: cAMP levels reflect the balance of adenylyl cyclase and phosphodiesterase activity.

Assay [2] addresses T1, GPR119. Kind of assay: insulin secretion at […] in RINm5f-GPR119 vs parental RINm5f cells. The format is cell-based.

Turning to `CCCC[C@H]1CC[C@H](c2nc(-c3ccncc3)no2)CC1` [PSN375963], it took 13.9 µM to reach a half-maximal effect at GPR119 [1] (EC50).
As for `CCCCCCCC/C=C\CCCCCCCC(=O)NCCO` [oleoylethanolamide], the “insulin secretion at 10 μM in RINm5f-GPR119 vs parental RINm5f cells” value at GPR119 [2] was “RINm5f cells transfected with human GPR119 (RIN-119 cells) responded to OEA and had an increased response to OLPC”.
